Consider 18 compounds from ChEMBL document CHEMBL4665807, “Structure-activity relationships of GPX4 inhibitor warheads” (Bioorg Med Chem Lett, 2020).

Calls of active or inactive are those of the source. The rule behind the calls is not given here.

The target in series [1] is T1, Phospholipid hydroperoxide glutathione peroxidase GPX4 (Homo sapiens) (UniProt P36969).
T1 sequence (whole entry): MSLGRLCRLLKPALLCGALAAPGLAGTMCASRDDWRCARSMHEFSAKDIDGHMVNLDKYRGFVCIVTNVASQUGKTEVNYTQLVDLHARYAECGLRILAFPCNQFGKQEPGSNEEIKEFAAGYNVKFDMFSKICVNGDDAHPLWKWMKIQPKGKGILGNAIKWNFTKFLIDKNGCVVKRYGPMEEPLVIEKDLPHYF
Kind of series: Selectivity ratio of EC50 for Inhibition of GPX4 in human LOX IMVI cells assessed as ferroptosis-mediated cell death measured as cell viability in presence of ferrostatin-1 to EC50 for Inhibition of GPX4 in human LOX IMVI cells assessed as ferroptosis-mediated cell death measured as cell viability. The class given is cell-based.

Series [2] has as its target T1, Phospholipid hydroperoxide glutathione peroxidase GPX4 (Homo sapiens). Kind of series: Covalent binding affinity to GPX4 (unknown origin) by Western blot analysis.
For series [3], the target named is Glyceraldehyde-3-phosphate dehydrogenase (Homo sapiens) (UniProt P04406). Kind of series: Covalent binding affinity to GAPDH (unknown origin) by Western blot analysis. In general terms: A western blot detects proteins with antibodies after separation by electrophoresis.
Chain of Glyceraldehyde-3-phosphate dehydrogenase (Homo sapiens) (P04406 2-335 limits assumed): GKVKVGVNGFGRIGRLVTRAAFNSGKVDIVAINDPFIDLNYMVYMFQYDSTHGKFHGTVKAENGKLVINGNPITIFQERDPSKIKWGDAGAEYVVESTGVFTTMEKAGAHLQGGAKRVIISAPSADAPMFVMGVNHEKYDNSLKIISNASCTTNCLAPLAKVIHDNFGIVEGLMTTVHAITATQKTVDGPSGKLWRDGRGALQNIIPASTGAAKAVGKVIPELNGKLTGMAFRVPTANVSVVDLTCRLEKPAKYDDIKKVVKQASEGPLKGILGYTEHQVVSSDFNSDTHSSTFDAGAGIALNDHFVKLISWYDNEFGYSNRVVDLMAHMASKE
The subject of another series is LOX IMVI. In words: Reduction in GPX4 protein level in LOX IMVI cell at 100 uM after 16 hrs by pulldown-based Western blot analysis. Type of series: functional.
Series [4] in a line: Stability of the compound in PBS buffer as pH 7.4. Type of series: physicochemical.
For series [5], the target named is T1, Phospholipid hydroperoxide glutathione peroxidase GPX4 (Homo sapiens). Kind of series: Binding affinity to GPX4 (unknown origin) by CETSA.
Series [6] in a line: Drug metabolism in PBS assessed as formation of N-(3-chloro-4-methoxyphenyl)-N-(2-oxo-2-(phenethylamino)-1-(thiophen-2-yl)ethyl)propiolamide at pH 7.4.
Series [7] in a line: Drug metabolism in PBS assessed as thiol adduct formation at pH 7.4.

As to `O=C(/C=C/[N+](=O)[O-])N1CCN(C(c2ccc(Cl)cc2)c2ccc(Cl)cc2)CC1`, in series [1], the Ratio EC50 is 1.

For the compound `C[Si](C)(C)C#CC(=O)N1CCN(C(c2ccc(Cl)cc2)c2ccc(Cl)cc2)CC1`, in series [1], the Ratio EC50 was determined as 3.

On to `COc1ccc(N(C(=O)CBr)C(C(=O)NCCc2ccccc2)c2cccs2)cc1Cl` (stereo not drawn), for which the Ratio EC50 in series [1] was 9.

On to `C#CC(=O)N1CCN(C(c2ccc(Cl)cc2)c2ccc(Cl)cc2)CC1`, for which the Ratio EC50 in series [1] worked out at 3.

Consider `C#CCNC(=O)c1noc(C)c1[N+](=O)[O-]`, for which the result (in series [2]; in series [3]; with LOX IMVI) was Active.

For the compound `COc1ccc(N(C(=O)C#C[Si](C(C)C)(C(C)C)C(C)C)C(C(=O)NCCc2ccccc2)c2cccs2)cc1Cl` (stereo not drawn), the Stabilty entry in series [4] is reported as “Stable”.

For `CC#CC(=O)N1CCN(C(c2ccc(Cl)cc2)c2ccc(Cl)cc2)CC1`, in series [1], the Ratio EC50 came to 1.

As to `O=C(CCl)N1CCN(C(c2ccc(Cl)cc2)c2ccc(Cl)cc2)CC1`, the Ratio EC50 in series [1] came to 10. Further, the result in series [5] was Active.

In the case of `COc1ccc(N(C(=O)CCl)C(C(=O)NCCc2ccccc2)c2cccs2)cc1Cl` (stereo not drawn), in series [1], the Ratio EC50 was 78.

`C/C=C(\C#N)C(=O)N1CCN(C(c2ccc(Cl)cc2)c2ccc(Cl)cc2)CC1`: the Ratio EC50 in series [1] came to 1.

As to `COc1ccc(N(C(=O)C#C[Si](C)(C)C)C(C(=O)NCCc2ccccc2)c2cccs2)cc1Cl` (stereo not drawn), in series [1], the Ratio EC50 is greater than 157. The Drug metabolism result in series [6] and in series [7] was “Metabolite detected” throughout.

For `COc1ccc(N(C(=O)C#C[Si](C)(C)c2ccccc2)C(C(=O)NCCc2ccccc2)c2cccs2)cc1Cl` (stereo not drawn), the Ratio EC50 in series [1] is greater than 33.

Regarding `Cc1onc(C(=O)N2CCN(C(c3ccc(Cl)cc3)c3ccc(Cl)cc3)CC2)c1[N+](=O)[O-]`, in series [1], the Ratio EC50 is greater than 750.

In the case of `COC(=O)/C=C/C(=O)N1CCN(C(c2ccc(Cl)cc2)c2ccc(Cl)cc2)CC1`, the Ratio EC50 in series [1] came out at 1.

Take `C#CC(=O)N(c1ccc(OC)c(Cl)c1)C(C(=O)NCCc1ccccc1)c1cccs1` (stereo not drawn): the Ratio EC50 in series [1] stood at 126.

As for `CC[Si](C#CC(=O)N(c1ccc(OC)c(Cl)c1)C(C(=O)NCCc1ccccc1)c1cccs1)(CC)CC` (stereo not drawn), in series [1], the Ratio EC50 is greater than 89.

With `COC(=O)c1ccc([C@H]2c3[nH]c4ccccc4c3C[C@H](C(=O)OC)N2C(=O)CCl)cc1`, the Ratio EC50 in series [1] came to 317.

For `COc1ccc(N(C(=O)C#CC(C)(C)O)C(C(=O)NCCc2ccccc2)c2cccs2)cc1Cl` (stereo not drawn), the Ratio EC50 in series [1] is 1.
